Patent publication US20110263485A1, “Bifunctional Griffithsin Analogs” (priority 2009, published 2011)
Where “and” joins values, the source holds several entries; their conditions need not be identical. Equal values may be shown once. Read-outs that look alike come from different tables or passages of the source.

Assays:
[1] = test system: HL2/3 effector cells (HXB2 env (X4)) and HeLa-TZM target cells; experiment: X4 cell-cell fusion assay; assay type: cell-based, HIV-1
From the text: In the X4 fusion assay, HeLa-TZM cells were used as target cells and HL2/3 cells were used as effector cells.

[2] = test system: HeLa-ADA effector cells (HIV-1 ADA (R5) env) and HeLa-P5L target cells (CD4, CCR5); experiment: R5 cell-cell fusion assay; details: for IC50: read-out: R5 fusion assay IC50
[3] = test system: HeLa-ADA effector cells and HeLa-P5L target cells seeded with 3T3 cells; experiment: competition R5 fusion assay with mouse 3T3 competitor cells; assay type: cell-based, HIV-1; details: for inhibition in R5 fusion assay with competitor cells, in words: mouse 3T3 competitor cells
Method: In the competition R5 fusion assay, 5×10^3 HeLa-P5L cells were seeded together with 5×10^3 3T3 cells per well. The rest of the procedure was identical to the normal R5 fusion assay.
For a potential therapeutic to be beneficial in an organism, it needs to be able to effectively find its target in the milieu of other cell types and potential binding partners. As a test of this ability, the R5 cell fusion assay was modified with the addition of unrelated mouse 3T3 cells.

[4] = test system: ADA (R5) pseudovirus in TZM-bl cells; details: for IC50: read-out: ADA (R5) single round pseudovirus IC50
[5] = test system: HeLa P5L cells pre-incubated with inhibitor, washed, then HeLa ADA cells; experiment: R5 fusion assay with wash-out on P5L cells
human cervical explants = details: cited from earlier work
ADA (R5) in MAGI cells = experiment: replication competent HIV assay, ADA in MAGI cells; assay type: cell-based
[6] = test system: JRFL (R5) pseudovirus in TZM-bl cells; experiment: single round infection assay, JRFL pseudovirus
[7] = test system: 92HT599 (CXCR4-tropic) in PBMCs; experiment: HIV-1 replication in PBMC, 92HT599; assay type: cell-based; details: combinations as total protein concentration
Ba-L (R5) in MAGI cells = experiment: replication competent HIV assay, Ba-L in MAGI cells; assay type: cell-based
[8] = test system: HeLa ADA cells pre-incubated with inhibitor, washed, then HeLa P5L cells; experiment: R5 fusion assay with wash-out on ADA cells
HIV [9] = details: cited from earlier work
91US005 (R5) in PBMC = experiment: HIV-1 replication in PBMC, 91US005; assay type: cell-based
rabbit vaginal model = details: in vivo; cited from earlier work
Ba-L (R5) in PBMC = experiment: HIV-1 replication in PBMC, Ba-L; assay type: cell-based
multiple clades of HIV = details: cited from earlier work
IIIB (X4) in MAGI cells = experiment: replication competent HIV assay, IIIB in MAGI cells; assay type: cell-based
[10] = test system: NL4-3 (CXCR4-tropic) in PBMCs; experiment: HIV-1 replication in PBMC, NL4-3; assay type: cell-based; details: combinations as total protein concentration
[11] = cited from earlier work
HIV [12] = details: read-out: IC50 (50% inhibition) in in vitro assays; Root & Steger (2004); cited from earlier work
X4 fusion = details: Martin et al. (2003); cited from earlier work
CCR5-tropic fusion = details: published reports, vaccinia technology; cited from earlier work

GriffC37(Q652L): Griff37 with point mutation Q652L in the C37 part
inhibition in X4 fusion assay, in words [1]: similar
inhibition in R5 fusion assay, in words [2]: approximately the same effectiveness as Griff37

P2-RANTES-linker-Griffithsin: P2-RANTES linked to Griffithsin; SEQ ID NO. 4
inhibition in R5 fusion assay with competitor cells, in words [3]: appeared to perform better than either protein alone
inhibition in R5 fusion assay, in words [2]: more effective than Griffithsin alone

Griff37 I642D: Griff37 with substitution of Asp for Ile at position 642 in C37
inhibition in R5 fusion assay, in words [2]: shows decreased activity

Ac-HTTWMEWDREINNYTSLIHSLIEESQNLQEKNEQELL-NH2 [C37(Q652L)]
IC50 [4]: 114 ± 4.94 nM
IC50 [2]: 28.2 ± 8.34 nM

Griffithsin
inhibition after wash-out on target (P5L) cells, in words [5]: still performed well
IC50 ([5]; read-out: R5 fusion with wash-out on P5L cells IC50): 7.34 ± 3.58 nM
inflammation in human cervical explants (human cervical explants): non-inflammatory
IC50 (ADA (R5) in MAGI cells): 0.03 ± 0.01 nM
IC90 (ADA (R5) in MAGI cells): 0.45 ± 0.04 nM
IC50 ([3]; 3T3 competitor cells): 1.73 ± 0.603 nM
inhibition in R5 fusion assay with competitor cells, in words [3]: still performs well
IC50 ([6]; read-out: JRFL (R5) single round pseudovirus IC50): 0.035 ± 0.008 nM
IC90 ([6]; read-out: JRFL (R5) single round pseudovirus IC90): 1.25 ± 0.19 nM
IC50 [7]: 0.74 ± 0.37 nM
IC90 [7]: 1.86 ± 0.89 nM
IC50 (Ba-L (R5) in MAGI cells): 0.04 nM
IC90 (Ba-L (R5) in MAGI cells): 0.515 ± 0.055 nM
inhibition after wash-out on ADA cells, in words [8]: maintained nanomolar effectiveness
IC50 ([8]; read-out: R5 fusion with wash-out on ADA cells IC50): 4.28 ± 1.5 nM
activity in cervical/vaginal lavage fluid (HIV [9]): retains its activity
IC50 (91US005 (R5) in PBMC; PBMCs, Table 8, combinations as total protein concentration, read-out: 91US005 (CCR5-tropic) IC50): 0.28 ± 0.17 nM
IC90 (91US005 (R5) in PBMC; PBMCs, Table 8, combinations as total protein concentration, read-out: 91US005 (CCR5-tropic) IC90): 0.76 ± 0.15 nM
IC50 (91US005 (R5) in PBMC; Table 7, read-out: 91US005 (R5) in PBMC IC50): 0.16 ± 0.03 nM
IC90 (91US005 (R5) in PBMC; Table 7, read-out: 91US005 (R5) in PBMC IC90): 0.51 ± 0.08 nM
IC50 [1]: 0.48 nM and 0.468 nM
IC50 [4]: 0.008 ± 0.016 nM
IC90 ([4]; read-out: ADA (R5) single round pseudovirus IC90): 0.164 ± 0.069 nM
IC50 [2]: 1.31 nM and 1.3 nM
irritation in a rabbit vaginal model (rabbit vaginal model): non irritating
IC50 (Ba-L (R5) in PBMC; PBMCs, Table 8, combinations as total protein concentration, read-out: Ba-L (CCR5-tropic) IC50): 0.28 ± 0.17 nM
IC90 (Ba-L (R5) in PBMC; PBMCs, Table 8, combinations as total protein concentration, read-out: Ba-L (CCR5-tropic) IC90): 0.76 ± 0.15 nM
IC50 (Ba-L (R5) in PBMC; Table 7, read-out: Ba-L (R5) in PBMC IC50): 0.28 ± 0.17 nM
IC90 (Ba-L (R5) in PBMC; Table 7, read-out: Ba-L (R5) in PBMC IC90): 0.76 ± 0.15 nM
activity against clades of HIV (multiple clades of HIV): active against multiple clades of HIV
IC50 (IIIB (X4) in MAGI cells): 0.145 ± 0.065 nM
IC90 (IIIB (X4) in MAGI cells): 0.89 ± 0.11 nM
IC50 [10]: 0.17 ± 0.04 nM
IC90 [10]: 0.725 ± 0.13 nM

enfuvirtide
lifetime in vivo [11]: short lifetime of only hours in vivo
IC50 (HIV [12]): 2 to 20 nM

CD4M33: 27 amino acid peptide designed by Martin et al. as a mimic of human CD4 binding HIV gp120 (CNLHFCQLRCKSLGLLGKCAGSFCACV)
IC50 (X4 fusion): 800 ± 90 nM
amount required to inhibit CCR5-tropic fusion (CCR5-tropic fusion): micromolar amounts of the peptide are required
